According to PMC6013238, “Development of novel NEMO-binding domain mimetics for inhibiting IKK/NF-κB activation” (PLoS Biology, 2018):
“And” between values parts separate entries of the source, which are not always exact repeats. Equal entries are not always repeated.

Legend:
[1] = system: NF-κB DNA binding activity; assay: EMSA of NF-κB DNA binding activity in muscle of mdx mice after a single i.p. dose; type: in vivo, mouse; settings: for NF-κB DNA binding activity in quadriceps (EMSA): mdx mice, single i.p. 10 mg/kg, 1 h and 2 h post injection
Procedure: To confirm that the NBD mimetics reduce IKK kinase activity, phosphorylation of IκBα by IKK in response to 10 ng/ml of TNF-α was measured by western blot at 0, 5, and 10 min after stimulation. […] To determine whether the mimetics also reduce NF-κB DNA binding activity, electrophoretic mobility shift assay (EMSA) was conducted both in vitro and in vivo. […] The addition of acetonitrile increased the stability of both ZINC compounds, especially ZINC 5 (Fig 3D).
Fig 3 Two identified small molecules reduce NF-κB DNA binding activity in vivo and in vitro. (A) Levels of p-IκBα with or without treatment in response to TNF-α were determined by western blot analysis. HEK293 cells were pretreated with DMSO, ZINC12909780 (100 μM), and ZINC5 (100 μM) for 30 min followed by the stimulation of 10 ng/ml of TNF-α for 0, 5, and 10 min. Cell lysates were prepared for immunoblot against p-IκBα. GAPDH was used as a loading control. (B) EMSA analysis detecting NF-κB DNA binding activity was performed in C2C12 myoblasts. Cells were pretreated with 200 μM of DMSO, ZINC12909780, and ZINC5 in serum-free media for 1 h. TNF-α was then added to a final concentration of 10 ng/ml and incubated for 15 min. Nuclear extract was obtained for EMSA analysis. (C) EMSA analysis assessing NF-κB DNA binding activity in vivo was performed with quadriceps from mdx mice. […] Quadriceps was harvested at 1 h and 2 h post injection for EMSA analysis. (D) The time-course pharmacokinetics of ZINC5 and ZINC12909780 in FBS media or FBS media containing acetonitrile. Underlying data can be found in S1 Data. EMSA, electrophoretic mobility shift assay; HEK293, human embryonic kidney 293 cells; i.p., intraperitoneal; NF-κB, nuclear factor κB; t1/2, half-life; TNF-α; tumor necrosis factor α. […]
Supplementary file pbio.2004663.s005.tif: S4 Fig Chronic treatment with NBD mimetics improves muscle pathology by inhibiting NF-κB DNA binding activity in mdx mice. (A) Quantification of percentage of centralized myonuclei. […]

[2] = Serum AST, ALT and ALP of chronically treated mdx mice; type: in vivo, mouse; settings: for Liver toxicity (serum AST, ALT, ALP): chronically treated mdx mice, 30 mg/kg; for ALP Final Concentration / ALT Final Concentration / AST Final Concentration: serum, individual mouse (FigS3B)

In the case of `O=C(CNc1ccc(Cl)cn1)NCCc1cccc(Br)c1` [SR12343], the “NF-κB DNA binding in TA muscle (EMSA)” value ([1]; 9-wk-old mdx mice, single injection 30 mg/kg i.p., 2 h post injection) is reported as “reduction in NF-κB DNA binding”, the “Liver toxicity (serum AST, ALT, ALP)” value [2] is reported as “no overt liver toxicity” and the “ALP Final Concentration” value [2] is reported as 170 U/L and 225 U/L and 145 U/L. The “ALT Final Concentration” value [2] was 125 U/L and 160 U/L and 150 U/L and 260 U/L and the “AST Final Concentration” value [2] was 775 U/L and 1030 U/L and 875 U/L and 1560 U/L.

In the case of `O=C(CNCCc1cc(F)cc(F)c1)Nc1ccc(Cl)cn1` [SR12460], the “Liver toxicity (serum AST, ALT, ALP)” value [2] is reported as “no overt liver toxicity”, the “ALP Final Concentration” value [2] is reported as 195 U/L and 170 U/L and 160 U/L and the “ALT Final Concentration” value [2] is reported as 215 U/L and 185 U/L. For the same molecule, the “AST Final Concentration” value [2] was 1245 U/L and 1330 U/L and 1415 U/L.

For `O=C(COC(=O)Cc1ccccc1F)Nc1ccc(Cl)cn1` [ZINC5], the “NF-κB DNA binding activity in quadriceps (EMSA)” value [1] was “inhibited NF-κB DNA binding activity”.

With `Nc1ncccc1C(=O)OCC(=O)Nc1ccc(Cl)cc1F` [ZINC12909780] the “NF-κB DNA binding activity in quadriceps (EMSA)” value [1] was “inhibited NF-κB DNA binding activity”.
